Format in all cases: biochemical
In experiment [1] the target is T1, human NTPDase8 (Homo sapiens, UniProt Q5MY95).
T1 construct: expressed in transfected cells; host or cells: COS-7 cells (membrane preparation)
T1 sequence (Q5MY95 1-495): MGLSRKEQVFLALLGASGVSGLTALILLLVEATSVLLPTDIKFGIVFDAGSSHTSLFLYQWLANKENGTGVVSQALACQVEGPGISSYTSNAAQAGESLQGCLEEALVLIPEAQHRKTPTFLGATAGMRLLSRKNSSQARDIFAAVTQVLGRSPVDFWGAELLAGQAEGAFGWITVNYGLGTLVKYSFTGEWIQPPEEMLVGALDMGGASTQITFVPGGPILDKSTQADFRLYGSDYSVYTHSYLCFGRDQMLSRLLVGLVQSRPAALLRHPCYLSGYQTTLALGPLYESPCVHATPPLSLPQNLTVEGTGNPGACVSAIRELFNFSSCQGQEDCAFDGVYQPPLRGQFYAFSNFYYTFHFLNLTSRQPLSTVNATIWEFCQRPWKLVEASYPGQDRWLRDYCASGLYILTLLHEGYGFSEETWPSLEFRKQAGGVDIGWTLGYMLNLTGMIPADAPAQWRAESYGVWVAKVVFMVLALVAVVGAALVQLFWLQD
In words: Malachite green assay, human NTPDase8. The conditions noted are these: 2 μM compound; 100 µM ATP; COS-7 membrane preparation; read-out: % inhibition at 2 μM concentration, NTPDase8. On the procedure: (§1) Membrane preparations expressing human NTPDase1, -2, -3, or -8, respectively, were obtained as previously described ([Sévigny et al., 1997]; [Cogan et al., 1999]; [Kukulski et al., 2005]; [Lecka et al., 2013]; [Lee et al., 2018]). Enzyme inhibition assays were performed using the malachite green assay in analogy to published procedures with some modifications ([Dou et al., 2018]). The reaction buffer contained 10 mM HEPES, 2 mM CaCl2, and 1 mM MgCl2 (pH 7.4) in a final volume of 50 μL in transparent 96-well half-area plates. The compounds were initially tested at a final concentration of 2 µM using a COS-7-cell membrane preparation expressing the appropriate NTPDase isoenzyme (protein amount: 143 ng for NTPDase1, 175 ng for NTPDase2, 152 ng for NTPDase3, and 175 ng for NTPDase8). Preincubated of the enzyme preparations was perfomred at 37°C in the presence or absence of test compounds with gentle shaking (Eppendorf Thermomixer comfort at 500 rpm) for 5 min. […] ([Kukulski et al., 2005]). After 15 min of incubation at 37°C with gentle shaking, the reaction was stopped by the addition of the detection reagents (20 µL malachite green solution, 0.6 mM, and 30 µL of ammonium molybdate solution, 20 mM, in 1.5 M sulfuric acid). The released inorganic phosphate was quantified after 20 min of gentle shaking at 25°C by measuring the absorption of the malachite green-phosphomolybdate complex at 600 nm using a BMG PheraStar FS plate reader (BMG Labtech GmbH, Ortenberg, Germany). The corrected absorption was calculated by subtracting the absorption of the negative control samples, which were incubated with previously denatured enzyme (90°C, 15 min). Full concentration-inhibition curves were determined with inhibitor concentrations ranging from 0.03 to 30 µM in the presence of 2% DMSO. Inhibition-type experiments were performed with 25, 50, 100, 150 and 200 µM ATP as substrate for NTPDase2 in the presence of inhibitor 20 (0, 0.25, 0.5, and 1 µM) and 25, 50, 100 and 150 µM ATP substrate for NTPDase3 and compound 42 (0.25, 0.5, and 1 µM). For all of the presented data, at least three independent experiments were performed, and IC50 values were calculated by GraphPad Prism 8 software.
(§2) Inhibition of human NTPDases was performed using the malachite green assay, which was established on a robotic system (Z’ factors > 0.70) ([Baykov et al., 1988]; [Fiene et al., 2015]). The malachite green assay enables the detection of the phosphate produced by the enzymatic hydrolysis of nucleotides. A fixed substrate concentration of 50 µM ATP for NTPDase1 and 100 µM for NTPDase2, -3, and -8 was employed. Test compounds were initially screened at a concentration of 2 μM. […] A total of 48 synthesized anthraquinone derivatives including 14 new compounds not previously described in the literature were evaluated for their inhibitory activity at human NTPDase1, -2, -3, and -8 (for results see Table 1).

The target of experiment [2] is T2, human NTPDase3 (Homo sapiens, UniProt O75355).
T2 construct: expressed in transfected cells; host or cells: COS-7 cells (membrane preparation)
T2 sequence (O75355 1-529): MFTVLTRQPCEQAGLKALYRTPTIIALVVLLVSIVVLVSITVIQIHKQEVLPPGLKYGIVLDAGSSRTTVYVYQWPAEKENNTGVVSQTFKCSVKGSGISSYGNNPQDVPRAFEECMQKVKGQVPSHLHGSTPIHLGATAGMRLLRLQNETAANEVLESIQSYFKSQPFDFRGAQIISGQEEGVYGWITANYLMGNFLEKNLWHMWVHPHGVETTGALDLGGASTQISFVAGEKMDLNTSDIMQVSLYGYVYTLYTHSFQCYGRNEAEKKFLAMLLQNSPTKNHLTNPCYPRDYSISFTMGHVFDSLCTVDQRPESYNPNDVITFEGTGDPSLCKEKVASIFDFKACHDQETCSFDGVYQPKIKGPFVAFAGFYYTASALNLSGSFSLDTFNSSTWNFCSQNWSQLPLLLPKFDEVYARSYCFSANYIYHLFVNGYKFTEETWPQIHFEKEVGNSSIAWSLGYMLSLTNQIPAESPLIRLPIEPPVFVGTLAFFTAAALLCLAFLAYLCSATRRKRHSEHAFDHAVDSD
In words: Malachite green assay, human NTPDase3. The conditions noted are these: for IC50 / inhibition at 2 µM: 100 µM ATP, COS-7 membrane preparation; for IC50: read-out: IC50 ± SEM, NTPDase3; for inhibition at 2 µM: 2 μM compound, read-out: % inhibition at 2 μM concentration, NTPDase3. On the procedure:
as §1, §2

Experiment [3] addresses T3, human NTPDase2 (Homo sapiens, UniProt Q9Y5L3).
T3 construct: expressed in transfected cells; host or cells: COS-7 cells (membrane preparation)
T3 sequence (Q9Y5L3 1-495): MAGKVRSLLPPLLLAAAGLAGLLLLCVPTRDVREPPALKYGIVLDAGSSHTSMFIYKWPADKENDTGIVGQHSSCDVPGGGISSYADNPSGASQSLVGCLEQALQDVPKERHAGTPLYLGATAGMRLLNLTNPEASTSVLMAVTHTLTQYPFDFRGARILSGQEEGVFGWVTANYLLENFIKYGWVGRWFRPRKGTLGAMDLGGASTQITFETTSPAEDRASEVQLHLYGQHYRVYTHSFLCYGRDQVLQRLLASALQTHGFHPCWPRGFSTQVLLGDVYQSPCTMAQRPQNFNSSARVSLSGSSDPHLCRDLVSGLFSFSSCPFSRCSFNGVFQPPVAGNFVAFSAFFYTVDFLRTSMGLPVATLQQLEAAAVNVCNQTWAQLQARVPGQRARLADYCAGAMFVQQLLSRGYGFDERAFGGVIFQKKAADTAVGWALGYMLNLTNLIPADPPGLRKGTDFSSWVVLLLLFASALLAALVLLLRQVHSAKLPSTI
In words: Malachite green assay, human NTPDase2. The settings on record: 100 µM ATP, COS-7 membrane preparation; for inhibition at 2 µM: 2 μM compound, read-out: % inhibition at 2 μM concentration, NTPDase2; for IC50: read-out: IC50 ± SEM, NTPDase2. On the procedure:
as §1, §2

In experiment [4] the target is T4, human NTPDase1 (Homo sapiens, UniProt P49961).
T4 construct: expressed in transfected cells; host or cells: COS-7 cells (membrane preparation)
T4 sequence (P49961 1-510): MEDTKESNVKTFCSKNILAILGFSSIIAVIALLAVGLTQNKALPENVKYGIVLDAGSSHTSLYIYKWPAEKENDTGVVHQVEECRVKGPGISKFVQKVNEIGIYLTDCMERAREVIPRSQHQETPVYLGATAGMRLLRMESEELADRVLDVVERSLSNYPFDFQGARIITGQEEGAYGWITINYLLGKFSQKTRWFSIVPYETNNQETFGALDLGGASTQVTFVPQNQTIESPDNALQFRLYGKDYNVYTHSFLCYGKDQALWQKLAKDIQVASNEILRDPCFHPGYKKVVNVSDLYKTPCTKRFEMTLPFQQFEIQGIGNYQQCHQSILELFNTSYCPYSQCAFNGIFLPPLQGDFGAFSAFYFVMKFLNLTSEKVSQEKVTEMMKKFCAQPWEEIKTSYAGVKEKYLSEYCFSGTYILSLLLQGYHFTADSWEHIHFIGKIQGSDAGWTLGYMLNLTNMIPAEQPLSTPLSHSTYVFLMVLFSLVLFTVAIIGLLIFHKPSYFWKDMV
In words: Malachite green assay, human NTPDase1. The conditions noted are these: 2 μM compound; 50 µM ATP; COS-7 membrane preparation; read-out: % inhibition at 2 μM concentration, NTPDase1. On the procedure:
as §1, §2

The results in this text go back to article PMC7481482, “Development of Anthraquinone Derivatives as Ectonucleoside Triphosphate Diphosphohydrolase (NTPDase) Inhibitors With Selectivity for NTPDase2 and NTPDase3” (Frontiers in Pharmacology, 2020).

In general, IC50 refers to the concentration at which inhibition is half-maximal.

For `Nc1c(S(=O)(=O)O)cc(Nc2ccc(O)c(C(=O)O)c2)c2c1C(=O)c1ccccc1C2=O` [Compound 33, 1-amino-4-(3-carboxy-4-hydroxyphenylamino)-9,10-dioxo-9,10-dihydroanthracene-2-sulfonate], the inhibition at 2 µM in experiment [1] is -9%; in experiment [3] it was 12%; in experiment [4] it was -12%. Further, in experiment [2], the IC50 came out at 723 ± 32 nM.

On to `Nc1c(S(=O)(=O)O)cc(Nc2ccc(Cl)cc2C(=O)O)c2c1C(=O)c1ccccc1C2=O` [Compound 36], for which the inhibition at 2 µM in experiment [1] is -17%; in experiment [3] it was -2%; in experiment [4], -20%. Also, in experiment [2], the IC50 was determined as 4040 ± 470 nM.

As for `Cc1cc(Cl)ccc1Nc1cc(S(=O)(=O)O)c(N)c2c1C(=O)c1ccccc1C2=O` [Compound 38], the inhibition at 2 µM was -1% in experiment [1], 9% in experiment [2] and 2% in experiment [4]. Besides, the IC50 in experiment [3] was 5450 ± 700 nM.

Turning to `Nc1c(S(=O)(=O)O)cc(Nc2cccc(Cc3ccccc3)c2)c2c1C(=O)c1ccccc1C2=O` [Compound 39], the results for the inhibition at 2 µM in experiment [1] and in experiment [4] were 28% and 36%, respectively. Also, the values for the IC50 in experiment [2] and in experiment [3] were 13100 ± 1650 nM and 3590 ± 850 nM, respectively.

As for `Nc1c(S(=O)(=O)O)cc(Nc2cccc(Oc3ccccc3)c2)c2c1C(=O)c1ccccc1C2=O` [Compound 40], the figures for the inhibition at 2 µM in experiment [1], in experiment [2] and in experiment [4] were 9%, 18% and 12%, respectively. The half-maximal inhibitory concentration (IC50) in experiment [3] came to 1110 ± 60 nM.

With `Nc1c(S(=O)(=O)O)cc(Nc2ccc(S(=O)(=O)O)c(Nc3nc(Cl)nc(Cl)n3)c2)c2c1C(=O)c1ccccc1C2=O` [Compound 42, 1-amino-4-[3-(4,6-dichlorotriazin-2-ylamino)-4-sulfophenylamino]-9,10-dioxo-9,10-dihydroanthracene-2-sulfonate], the inhibition at 2 µM in experiment [1] is -7%; in experiment [3] it was 10%; in experiment [4] it was -2%. For the same molecule, in experiment [2], the IC50 was found to be 390 ± 41 nM. Besides, in experiment [2] (Hanes-Woolf plot, 25-150 µM ATP, inhibitor 0.25, 0.5, 1 µM), the “inhibition type, NTPDase3” value was “mixed-type”.

On to `Nc1c(S(=O)(=O)O)cc(Nc2ccc(Cc3ccccc3)cc2)c2c1C(=O)c1ccccc1C2=O` [Compound 43], for which the inhibition at 2 µM in experiment [1] was determined as 3%; in experiment [2], 3%; in experiment [4], 7%. Also, in experiment [3], the IC50 stood at 1320 ± 50 nM.

With `Nc1c(S(=O)(=O)O)cc(Nc2ccc(Sc3ccccc3)cc2)c2c1C(=O)c1ccccc1C2=O` [Compound 44], the results for the inhibition at 2 µM in experiment [1], in experiment [2] and in experiment [4] were 6%, 7% and 15%, respectively. For the same molecule, the IC50 in experiment [3] was determined as 934 ± 136 nM.

As for `Nc1c(S(=O)(=O)O)cc(Nc2ccc(Oc3ccc(Br)cc3)cc2)c2c1C(=O)c1ccccc1C2=O` [Compound 46], the inhibition at 2 µM is 10% in experiment [1], 21% in experiment [2] and 33% in experiment [4]. For the same molecule, in experiment [3], the IC50 is 1730 ± 290 nM.

Regarding `Nc1c(S(=O)(=O)O)cc(Nc2ccc(Sc3ccccc3)c(Cl)c2)c2c1C(=O)c1ccccc1C2=O` [Compound 48, Sodium 1-amino-4-(3-chloro-4-phenylsulfanyl)-phenylamino-9,10-dioxo-9,10-dihydroanthracene-2-sulfonate], the inhibition at 2 µM came to 14% in experiment [1], 20% in experiment [2] and 29% in experiment [4]. Further, in experiment [3], the IC50 was found to be 551 ± 195 nM.

Take `Cc1ccc(Sc2ccc(Nc3cc(S(=O)(=O)O)c(N)c4c3C(=O)c3ccccc3C4=O)cc2)c(C)c1` [Compound 49]: the inhibition at 2 µM in experiment [1] came to 27%; in experiment [2], 36%; in experiment [4] it was 46%. Moreover, the IC50 in experiment [3] amounted to 1280 ± 340 nM.

On to `Cc1ccc(C)c(Sc2ccc(Nc3cc(S(=O)(=O)O)c(N)c4c3C(=O)c3ccccc3C4=O)cc2)c1` [Compound 50], for which the inhibition at 2 µM in experiment [1] is 17%; in experiment [2], 34%; in experiment [4], 38%. The IC50 in experiment [3] was 1130 ± 270 nM.

In the case of `Cc1ccc(Sc2ccc(Nc3cc(S(=O)(=O)O)c(N)c4c3C(=O)c3ccccc3C4=O)cc2)cc1C` [Compound 51], the inhibition at 2 µM in experiment [1] came out at 27%; in experiment [2], 44%; in experiment [4] it was 51%. Besides, the IC50 in experiment [3] was 832 ± 53 nM.
